From PubChem BioAssay (NCI)
Several values for one entry are separate records, joined by “and”; a condition that tells them apart may be missing. Equal entries are not always repeated.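 The compound was tested at five concentrations on cells cultured in 96-well plates, with a 48-hour exposure period. GI50 is the concentration that inhibits growth by half. TGI denotes the concentration required for complete inhibition of growth.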

Tests used:
Assay in all cases: NCI anticancer screen, dose series, 48 h
[1] = tested on: MALME-3M melanoma
[2] = tested on: KM12 colon
[3] = tested on: UO-31 renal
[4] = tested on: DU-145 prostate
[5] = tested on: SK-MEL-28 melanoma
[6] = tested on: HS 578T breast
[7] = tested on: UACC-62 melanoma
[8] = tested on: MDA-MB-435
[9] = tested on: T-47D breast
[10] = tested on: PC-3 prostate

With `NC1=NCN(C2OC(CO)C(O)C2O)C(=O)N1` (stereo unspecified) the TGI [1] was 128 µM, the TGI [2] was 674 µM and the TGI [3] was 872 µM. The TGI [4] was 1330 µM, the TGI [5] was 1660 µM and the TGI [6] was 734 µM. It also gave a TGI [7] of 241 µM, a TGI [8] of 154 µM and a TGI [9] of 759 µM. The TGI [10] was 1530 µM.

For `COc1ccc(C2NC(=S)NC3=C2CCOc2c3ccc3ccccc23)cc1` (stereo unspecified), the GI50 [1] was 49.8 µM, the TGI [1] was > 100 µM and the GI50 [2] was 27 µM. The TGI [2] was > 100 µM, the GI50 [3] was 98.3 µM and the TGI [3] was > 100 µM. For the same compound, the GI50 [4] was > 100 µM, the TGI [4] was > 100 µM and the GI50 [5] was > 100 µM. The TGI [5] was > 100 µM, the GI50 [6] was 47.4 µM and the TGI [6] was > 100 µM. The GI50 [7] was 21.2 µM, the TGI [7] was > 100 µM and the GI50 [8] was 36.4 µM. For the same compound, the TGI [8] was > 100 µM, the GI50 [9] was 8.5 µM and the TGI [9] was > 100 µM. For the same compound, the GI50 [10] was > 100 µM and the TGI [10] was > 100 µM.

In the case of `CC[C@H]1OC(=O)[C@H](C)[C@@H](O[C@H]2C[C@@](C)(OC)[C@@H](O)[C@H](C)O2)[C@H](C)[C@@H](O[C@@H]2O[C@H](C)C[C@H](N(C)C)[C@H]2O)[C@](C)(OC)C/C(C)=C2/O[C@@]1(C)C=C2C`, the GI50 [1] is reported as 1.58 µM, the TGI [1] is reported as 2.97 µM and the GI50 [2] is reported as 1.63 µM. For the same compound, the TGI [2] was 3.11 µM, the GI50 [3] was 1.37 µM and the TGI [3] was 2.65 µM. For the same compound, the GI50 [4] was 1.82 µM, the TGI [4] was 3.39 µM and the GI50 [5] was 1.89 µM. It also gave a TGI [5] of 3.32 µM, a GI50 [6] of 1.68 µM and a TGI [6] of 3.62 µM. It also gave a GI50 [7] of 1.76 µM, a TGI [7] of 3.18 µM and a GI50 [8] of 1.67 µM. The TGI [8] was 3.15 µM, the GI50 [9] was 1.96 µM and the TGI [9] was 4.56 µM. For the same compound, the GI50 [10] was 1.68 µM and the TGI [10] was 3.46 µM.

For `NCCCN=c1ccc2c3c1c(O)c1c(O)ccc(=O)c1c3[nH]n2CCNCCO`, the TGI [1] was 6 µM, the GI50 [2] was 1.88 µM and the TGI [2] was 11.6 µM and 39 µM. The GI50 [3] was 3.78 µM and 14.2 µM, the TGI [3] was 24.5 µM and 98.1 µM and the GI50 [4] was 1 µM. For the same compound, the TGI [4] was 5.57 µM and 8.3 µM, the GI50 [5] was 5.48 µM and 6.41 µM and the GI50 [6] was 1.77 µM. The TGI [6] was 4.8 µM, the GI50 [7] was 0.792 µM and the TGI [7] was 5.66 µM and 6.48 µM. For the same compound, the TGI [8] was 15.4 µM, the TGI [9] was 15.8 µM and the GI50 [10] was 5.08 µM. The TGI [10] was 15.6 µM and 68 µM.

Compound `COc1cc(-c2nn(-c3cccc(NC(=O)CCNc4ccc(N5CCOCC5)cc4)c3)cc2-c2ccncc2)ccc1Cl` has a GI50 [1] of 2.31 µM, a TGI [1] of 6.93 µM and a GI50 [2] of 2.44 µM. The TGI [2] was 20 µM, the GI50 [3] was 2.7 µM and the TGI [3] was > 100 µM. The GI50 [4] was 4.04 µM, the TGI [4] was > 100 µM and the GI50 [5] was 3.13 µM. For the same compound, the TGI [5] was > 100 µM, the GI50 [6] was 3.27 µM and the TGI [6] was > 100 µM. It also gave a GI50 [7] of 1.88 µM, a TGI [7] of 4.89 µM and a GI50 [8] of 2.41 µM. The TGI [8] was 7.28 µM, the GI50 [9] was 1.99 µM and the TGI [9] was 7.91 µM. It also gave a GI50 [10] of 2.8 µM and a TGI [10] of 31.4 µM.

`CCOC(=O)/C(=C\c1ccc2ccccc2c1)P(=O)(OCC)OCC` showed a GI50 [1] of 2.52 µM, a TGI [1] of 7.95 µM and a GI50 [2] of 3.08 µM. The TGI [2] was 10.9 µM, the GI50 [3] was 1.72 µM and the TGI [3] was 4.4 µM. The GI50 [4] was 2.63 µM, the TGI [4] was 9.32 µM and the GI50 [5] was 2.95 µM. For the same compound, the TGI [5] was 8.06 µM, the GI50 [6] was 7.17 µM and the TGI [6] was 75.8 µM. For the same compound, the GI50 [7] was 2.33 µM, the TGI [7] was 8.53 µM and the GI50 [8] was 2.92 µM. The TGI [8] was 13.3 µM, the GI50 [9] was 2.55 µM and the TGI [9] was 9.09 µM. It also gave a GI50 [10] of 2.84 µM and a TGI [10] of 6.81 µM.

`Cc1nc2ccccc2c(=O)n1/N=C(\N=Nc1cc(Cl)ccc1Cl)c1ccccc1` was tested, and the TGI [1] was > 100 µM, the TGI [2] was 25.8 µM and the TGI [3] was > 31.6 µM. For the same compound, the TGI [4] was > 100 µM, the TGI [5] was > 100 µM and the TGI [6] was > 100 µM. The TGI [7] was > 100 µM, the TGI [8] was 44.1 µM and the TGI [9] was > 100 µM. The TGI [10] was > 100 µM.
